Results reported in patent US20060276372A1, “Carotenoids, carotenoid analogs, or carotenoid derivatives for the treatment of proliferative disorders” (priority 2005, published 2006).
“Also recorded” adds a separate entry of the source. Where a name gives a salt, the structure may show the parent alone. Read-outs that look alike come from different tables or passages of the source.

What was measured:
[1] = cited from earlier work
[2] = tested on: CX43; settings: aqueous ethanolic formulation, carcinogen-promoted 10T1/2 cells; cited from earlier work
[3] = Oral administration, pharmacokinetics in mice; format: in vivo; settings: oral preparation in lipophilic emulsion, single and multiple dose, murine model
[4] = tested on: superoxide anion; settings: mM concentrations, aqueous phase; cited from earlier work
[5] = 50 mg/kg, canines; cited from earlier work
[6] = doses up to 75 mg/kg, rat; cited from earlier work
[7] = mice; cited from earlier work
[8] = Cardiac ischemia-reperfusion injury, experimental infarction model; format: in vivo, rat; settings: intravenous pretreatment, rodents, highest dose tested
[9] = tested on: superoxide anion; assay: Direct superoxide anion scavenging by EPR spectroscopy (DEPMPO spin trap), PMA-stimulated isolated human PMNs; format: cell-based; settings: aqueous phase; statistical mixture and individual stereoisomers
Procedure: Leukocyte Isolation and Preparation. Human polymorphonuclear leukocytes (PMNs) were isolated from freshly sampled venous blood of a single volunteer by Percoll density gradient centrifugation as described previously. Briefly, each 10 mL of whole blood was mixed with 0.8 mL of 0.1 M EDTA and 25 mL of saline. The diluted blood was then layered over 9 mL of Percoll at a specific density of 1.080 g/mL. After centrifugation at 400×g for 20 min at 20° C., the plasma, mononuclear cell, and Percoll layers were removed. Erythrocytes were subsequently lysed by addition of 18 mL of ice-cold water for 30 s, followed by 2 mL of 10×PIPES buffer (25 mM PIPES, 110 mM NaCl, and 5 mM KCl, titrated to pH 7.4 with NaOH). Cells were then pelleted at 4° C., the supernatant was decanted, and the procedure was repeated. After the second hypotonic cell lysis, cells were washed twice with PAG buffer [PIPES buffer containing 0.003% human serum albumin (HSA) and 0.1% glucose]. Afterward, PMNs were counted by light microscopy on a hemocytometer. The isolation yielded PMNs with a purity of >95%. The final pellet was then suspended in PAG-CM buffer (PAG buffer with 1 mM CaCl2 and 1 mM MgCl2).
EPR Measurements. All EPR measurements were performed using a Bruker ER 300 EPR spectrometer operating at X-band with a TM110 cavity as previously described. The microwave frequency was measured with a Model 575 microwave counter (EIP Microwave, Inc., San Jose, Calif.). To measure superoxide anion (O2) generation from phorbol-ester (PMA)-stimulated PMNs, EPR spin-trapping studies were performed using the spin trap DEPMPO (Oxis, Portland, Oreg.) at 10 mM. 1×10^6 PMNs were stimulated with PMA (1 ng/mL) and loaded into capillary tubes for EPR measurements. To determine the radical scavenging ability of 3 and 9 in aqueous and ethanolic formulations, PMNs were pre-incubated for 5 minutes with test compound, followed by PMA stimulation.
Instrument settings used in the spin-trapping experiments were as follows: modulation amplitude, 0.32 G; time constant, 0.16 s; scan time, 60 s; modulation frequency, 100 kHz; microwave power, 20 milliwatts; and microwave frequency, 9.76 GHz. The samples were placed in a quartz EPR flat cell, and spectra were recorded. The component signals in the spectra were identified and quantified as reported previously.

[10] = target: human serum albumin (HSA) (Homo sapiens, UniProt P02768); assay: Plasma-protein binding studies in vitro
human serum albumin (HSA), sequence (P02768 25-609): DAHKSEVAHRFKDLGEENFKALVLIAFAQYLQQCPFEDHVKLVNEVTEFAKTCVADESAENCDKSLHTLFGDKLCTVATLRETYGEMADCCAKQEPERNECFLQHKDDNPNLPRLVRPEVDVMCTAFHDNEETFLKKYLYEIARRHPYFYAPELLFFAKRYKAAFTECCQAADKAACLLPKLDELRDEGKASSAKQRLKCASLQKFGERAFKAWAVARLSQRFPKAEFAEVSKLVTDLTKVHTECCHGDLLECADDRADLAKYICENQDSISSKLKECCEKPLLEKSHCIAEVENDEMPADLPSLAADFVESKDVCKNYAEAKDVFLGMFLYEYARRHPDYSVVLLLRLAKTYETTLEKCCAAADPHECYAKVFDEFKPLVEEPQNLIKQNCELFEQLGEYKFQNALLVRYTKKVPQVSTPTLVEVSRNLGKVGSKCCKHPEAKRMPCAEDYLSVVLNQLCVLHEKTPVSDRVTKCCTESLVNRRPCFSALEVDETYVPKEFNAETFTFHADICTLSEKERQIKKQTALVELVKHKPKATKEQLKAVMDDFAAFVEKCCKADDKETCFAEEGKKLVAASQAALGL

In the case of CC1=C(/C=C/C(C)=C/C=C/C(C)=C/C=C/C=C(C)/C=C/C=C(C)/C=C/C2=C(C)C(=O)C(OC(=O)CCC(=O)O)CC2(C)C)C(C)(C)CC(OC(=O)CCC(=O)O)C1=O (racemic) [dAST, disodium salt disuccinate ester of astaxanthin], the “concentration of pseudo-solution in water” value [1] is given as “up to 8 mg/ml; also recorded: approximately 10 mM”, the “expression of CX43 and GJIC” value [2] is given as “increased expression of the connexin protein CX43 and GJIC” and the “plasma and tissue levels of nonesterified astaxanthin” value [3] is given as “significant plasma and tissue levels of nonesterified astaxanthin were achieved”. For the same molecule, the “inhibition of the induced superoxide anion” value [4] was “complete inhibition”, the “protection against cardiac ischemia-reperfusion (I/R) injury” value [5] was “significantly protect against cardiac ischemia-reperfusion (I/R) injury” and the “protection against cardiac ischemia-reperfusion (I/R) injury” value [6] was “significantly protect against cardiac ischemia-reperfusion (I/R) injury”. For the same molecule, the “absorption and tissue distribution after oral administration” value [7] was “rapid absorption of the compound, its cleavage to free astaxanthin, and accumulation in certain target tissues”.

For CC1=C(/C=C/C(C)=C/C=C/C(C)=C/C=C/C=C(C)/C=C/C=C(C)/C=C/C2=C(C)C(=O)C(OC(=O)CCC(=O)O)CC2(C)C)C(C)(C)CC(OC(=O)CCC(=O)O)C1=O (stereo not shown) [dAST, disodium salt disuccinate ester of astaxanthin], the myocardial salvage [8] was “up to 56%” and the “direct scavenging of superoxide anion” value [9] was “potent direct scavengers of superoxide anion in the aqueous phase”.

With CC(C=CC=C(C)C=CC1=C(C)C(=O)C(OC(=O)CCC(=O)[O-])CC1(C)C)=CC=CC=C(C)C=CC=C(C)C=CC1=C(C)C(=O)C(OC(=O)CCC(=O)[O-])CC1(C)C.[Na+].[Na+] [meso-(3R,3′S)-disodium disuccinate astaxanthin] the “binding to human serum albumin” value [10] was “bound immediately and preferentially to human serum albumin (HSA) at a binding site”.
